According to paper PMC9962735, “Synthesis and Cytotoxic Activity of the Derivatives of N-(Purin-6-yl)aminopolymethylene Carboxylic Acids and Related Compounds” (Molecules, 2023):

Key:
[1] = system: A549 human non-small-cell lung carcinoma; test: MTT cytotoxicity assay, A549; format: cell-based; settings: Homo sapiens, A549, 72 h, A549, 72 h incubation, MTT, n = 3 (Table 3)
Text: (§1) The cytotoxicity of the test compounds was studied using the MTT assay against a number of cell lines: CT-26 murine colon carcinoma, 4T1 murine mammary carcinoma, MDA-MB-231 human breast adenocarcinoma, COLO201 human colorectal adenocarcinoma, HepG2 human hepatocellular carcinoma, A549 human non-small-cell lung carcinoma, SK-BR-3 human breast adenocarcinoma, SNU-1 human gastric carcinoma, Jurkat human acute T-lymphoblastic leukemia, and WI-38 human lung fibroblasts (normal cells). Doxorubicin (Dox) was used as a reference drug. Cells were incubated with test compounds for 72 h.
(§2) Cells were seeded in flat-bottomed 96-well plates at 10,000 cells per well (for A549, SNU-1, WI-38, CT-26, MDA-MB-231, 4T1, and HepG2 cells) or 20,000 cells per well (for SK-BR-3, Jurkat, and COLO201 cells) and cultivated in complete culture mediums (for composition of each medium, see the Supplementary Materials, Table S1) in a CO2 incubator at 37 °C. At the first stage of this study, the test compounds dissolved in DMSO were added to the wells with cells at final concentrations from 1 × 10^–4 to 1 × 10^–10 mol/L (A549, SK-BR-3, SNU-1, Jurkat, and WI-38) or 1 × 10^–3 to 1 × 10^–8 mol/L (CT-26, MDA-MB-231, 4T1, COLO201, and HepG2); DMSO concentration in the wells was finally 1%. A complete cultural medium and DMSO were added to the control wells at the same concentration as in the experimental wells; 0.1% Triton X-100 solution (10 µL) was added to the corresponding wells as a non-specific positive control. After adding the test compounds, the cells were incubated for 72 h in an atmosphere containing 5% CO2. After that, the nutrient medium was removed from each well (in the case of SK-BR-3, Jurkat, and COLO201, plates were pre-centrifuged at 1500 rpm for 6 min). A solution of the commercial anticancer agent Doxorubicin (Dox, Sigma-Aldrich, St. Louis, MO, USA) in DMSO was used as a reference drug. Then, 150 µL of a complete medium with the MTT reagent (PanEco, Moscow, Russia) at a concentration of 0.5 mg/mL was added and incubated for 2 h. Formazan crystals were dissolved in DMSO (200 µL) and the absorbance in the wells was measured at 540 nm and a reference wavelength of 650 nm (Sunrise, Tecan, Groding, Austria). Experiments were performed in three parallel runs. Cell viability after incubation in the presence of test compounds was calculated in relation to cell viability in the control wells according to the Formula (1):Cell viability (%) = (Aexp/Ac) × 100,(1) where Aexp is the optical density of solutions in the wells containing test compounds; Ac is the optical density of solutions in control wells without test compounds. For detailed information on cell viability of various cell lines, see the Supplementary Materials, Figures S21–S26.
(§3) At the second stage of this study, in order to more accurately calculate the CC50 (the half maximal inhibitory concentration), the cytotoxic effect of test compounds was evaluated at concentrations close to CC50 found at the first stage. The study of the cytotoxic activity of each substance towards the cells of each line was carried out in triplicate; the mean value was used to calculate CC50. The CC50 values were determined by non-linear regression analysis using Graph-Pad Prism7.

[2] = system: SNU-1 human gastric carcinoma; test: MTT cytotoxicity assay, SNU-1; format: cell-based; settings: Homo sapiens, SNU1, 72 h, SNU-1, 72 h incubation, MTT, n = 3 (Table 3)
Text: as §1, §2, §3

[3] = system: SK-BR-3 human breast adenocarcinoma; test: MTT cytotoxicity assay, SK-BR-3; format: cell-based; settings: Homo sapiens, SK-BR-3, 72 h, SK-BR-3, 72 h incubation, MTT, n = 3 (Table 3)
Text: as §1, §2, §3

[4] = system: A549, SK-BR-3, SNU-1, Jurkat, WI-38 cell lines; test: MTT cytotoxicity assay, cell line panel (result in words); format: cell-based, human; settings: 72 h
Text: as §1
The cytotoxicity of compounds 2a–c, 6, 7, and 9 was also studied using the MTT assay against a number of tumor cell lines: A549, SK-BR-3, SNU-1, Jurkat, as well as normal fibroblasts WI-38 (Table 3).
as §2, §3

[5] = system: Jurkat human acute T-lymphoblastic leukemia; test: MTT cytotoxicity assay, Jurkat; format: cell-based; settings: Homo sapiens, Jurkat, 72 h, 72 h incubation, MTT, n = 3 (Table 3)
Text: as §1, §2, §3

[6] = MTT cytotoxicity assay, WI-38 normal cells; format: cell-based; settings: human, WI-38 lung fibroblasts (normal cells), WI-38, 72 h incubation, MTT, n = 3 (Table 3)
Text: as §1, §2, §3

[7] = MTT cytotoxicity assay, A549; format: cell-based, human; settings: human, CC50 of WI-38 divided by CC50 of A549 (Table 3); read-out: SCI (selective cytotoxicity index)
Text: as §1, §2, §3

[8] = MTT cytotoxicity assay, SNU-1; format: cell-based, human; settings: human, CC50 of WI-38 divided by CC50 of SNU-1 (Table 3); read-out: SCI (selective cytotoxicity index)
Text: as §1, §2, §3

[9] = MTT cytotoxicity assay, SK-BR-3; format: cell-based, human; settings: human, CC50 of WI-38 divided by CC50 of SK-BR-3 (Table 3); read-out: SCI (selective cytotoxicity index)
Text: as §1, §2, §3

[10] = MTT cytotoxicity assay, Jurkat; format: cell-based, human; settings: human, CC50 of WI-38 divided by CC50 of Jurkat (Table 3); read-out: SCI (selective cytotoxicity index)
Text: as §1, §2, §3

Row | SMILES | CC50 [1] [µM] | CC50 [2] [µM] | CC50 [3] [µM] | cytotoxic activity (in words) [4] | CC50 [5] [µM] | CC50 at 72 h [6] [µM] | selectivity ratio at 72 h [7] | selectivity ratio at 72 h [8] | selectivity ratio at 72 h [9] | selectivity ratio at 72 h [10] | melting point [°C]
1 | C[C@H]1COc2c(ccc(F)c2F)N1C(=O)CCCCCCCCC(=O)N1c2ccc(F)c(F)c2OC[C@@H]1C [(S)-9, 1,10-bis((S)-7,8-Difluoro-3-methyl-2H-benzo[b][1,4]oxazin-4(3H)-yl)decan-1,10-dione] | > 100 | > 100 | > 100 | did not exhibit cytotoxic activity | > 100 | > 100 |  |  |  |  | 
2 | COc1cccc2c1C(=O)c1c(O)c3c(c(O)c1C2=O)C[C@@](O)(C(=O)CO)C[C@@H]3O[C@H]1C[C@H](N)[C@H](O)[C@H](C)O1 [Dox, Doxorubicin, reference compound] | 0.22 | 0.14 | 1.5 |  | 0.12 | 0.23 | 1 | 1.6 | 0.15 | 1.9 | 
3 | O=C(O)CCCCCCCCCCNc1ncnc2nc[nH]c12 [Compound 2a, N-(Purin-6-yl)-11-aminoundecanoic Acid] | > 100 | > 100 | > 100 | cytotoxic only against the Jurkat cell line | 59 | > 100 |  |  |  | ≥ 1.7 | 172 to 174
4 | O=C(O)CCCCCCCCCCCNc1ncnc2nc[nH]c12 [Compound 2b, N-(Purin-6-yl)-12-aminododecanoic Acid] | > 100 | > 100 | > 100 | cytotoxic only against the Jurkat cell line | 49 | > 100 |  |  |  |  | 
5 | CC1COc2c(ccc(F)c2F)N1C(=O)CNc1ncnc2[nH]cnc12 (stereo not drawn) [Compound 1a] | > 100 | > 100 | > 100 | non-cytotoxic | > 100 | > 100 |  |  |  |  | 
6 | CC1COc2c(ccc(F)c2F)N1C(=O)CCCCCCCCC(=O)N1c2ccc(F)c(F)c2OCC1C (stereo not drawn) (hydrate or solvate) [Compound 9, 1,10-bis(-7,8-Difluoro-3-methyl-2H-benzo[b][1,4]oxazin-4(3H)-yl)decan-1,10-dione] |  |  |  |  |  |  |  |  |  |  | 103 to 104
7 | C[C@H]1COc2c(ccc(F)c2F)N1C(=O)CCCCCCCCC(=O)N1c2ccc(F)c(F)c2OC[C@@H]1C (hydrate or solvate) [(S)-9, 1,10-bis((S)-7,8-Difluoro-3-methyl-2H-benzo[b][1,4]oxazin-4(3H)-yl)decan-1,10-dione] |  |  |  |  |  |  |  |  |  |  | 41 to 42
8 | CC(=O)OCCOCn1cnc2c(NCCCCCCCCCCC(=O)N3c4ccc(F)c(F)c4OCC3C)ncnc21 (stereo not drawn) [Compound 6, {11-[9-(2-Acetoxyethoxy)methylpurin-6-yl]aminoundecanoyl]-7,8-difluoro-3,4-dihydro-3-methyl-2H-[1,4]benzoxazine] | 15 | 5.6 | 370 | approximately the same cytotoxicity as the most active compound 1d | 10 | 30 | 2 | 5.4 | 0.08 | 3 | 
9 | CC1COc2c(ccc(F)c2F)N1C(=O)CCCCCCCCC(=O)N1c2ccc(F)c(F)c2OCC1C (stereo not drawn) [Compound 9, 1,10-bis(-7,8-Difluoro-3-methyl-2H-benzo[b][1,4]oxazin-4(3H)-yl)decan-1,10-dione] | > 100 | > 100 | > 100 | did not exhibit cytotoxic activity | > 100 | > 100 |  |  |  |  | 
10 | O=C(O)CCCCCCCCCCCCCCNc1ncnc2nc[nH]c12 [Compound 2c, N-(Purin-6-yl)-15-aminopentadecanoic Acid] | > 100 | > 100 | > 100 | no cytotoxic activity | > 100 | > 100 |  |  |  |  | 198 to 199
